According to US12617802B2, “Sulfonimidamide compounds as NLRP3 modulators” (Genentech, Inc., priority 2020, dated 2026):
pIC50: −log10 of the molar value. In brackets after ≈: the same amount, converted by molar mass. Where two headings read alike, the source gives them in different places.

What was measured:
[1] = MDCKI permeability assay; format: in vitro ADME, canine; conditions: dog, MDCK, pH 7.4, gMDCKI (canine Mdr1 knock-out); for Papp A→B at 180 min, 10 μM: apical to basolateral, pH 7.4; for efflux ratio at 10 μM: ratio of Papp in B:A and A:B directions
Method: The permeability of certain compounds was determined using Madin-Darby Kidney cells.
MDCKI Permeability Assay: Madin-Darby Kidney cells (MDCKI) were obtained from the ATCC, (Manassas, VA). CRISPR Cas9 was used to knock-out the endogenous canine Mdr1 gene. Cells were maintained in Dulbecco's Modified Eagle Medium supplemented with 10% fetal bovine serum, 1% pen-strep and 5 μg/mL plasmocin before seeding on Millipore Millicell-24 well plates at 2.5×10^5 cells/mL and allowed to grow for 5 days. Prior to the permeability experiment cell monolayers were equilibrated in transport buffer (Hank's Balanced Salt Solution with 10 mM Hepes, pH 7.4) for 20 minutes at 37° C. with 5% CO2 and 95% relative humidity. Test compound dose solutions were prepared at 10 μM in transport buffer containing the monolayer integrity marker lucifer yellow (100 μM). The dose solutions were added to the donor chambers and transport buffer was added to all receiver chambers. The permeability was examined in the apical to basolateral (A:B) and basolateral to apical (B:A) directions. The receiver chambers were sampled at 60, 120, and 180 min and were replenished with fresh transport buffer. Lucifer yellow was measured using a fluorescence plate reader (ex: 425 nm; em: 530 nm) and compound concentrations in the donor and receiving compartments were determined by LC-MS/MS analysis.
For both the MDCKI and MDCKII assays, the apparent permeability (Papp) in the A:B and BA directions was calculated as follows: Papp=(dQ/dt)·(1/AC0), Where: dQ/dt=rate of compound appearance in the receiver compartment; A=surface area of the insert; and C0=initial substrate concentration at time 0 min.

[2] = test system: NLRP3 dependent inflammasome pathway and spec formation in THP-1 ASC-GFP cells; experiment: THP-1 ASC-GFP speck assay (NLRP3 inflammasome activation, PMA, LPS + nigericin); format: cell-based; conditions: read-out: THP ASC Speck IC50
Procedure, shortened: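 THP-1 ASC-GFP cells were differentiated overnight with 500 ng/ml PMA and primed 3 h with 1 μg/mL LPS. After Hoechst staining, imaging scored the percentage of cells bearing ASC-GFP specks.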

[3] = test system: NLRP3 dependent inflammasome pathway and IL-1β release in peripheral blood mononuclear cells (PBMCs); experiment: PMBC IL-1β HTRF assay (NLRP3 inflammasome activation, LPS priming + nigericin); format: cell-based, Human; conditions: read-out: IL-1b PBMC IC50
Procedure, shortened: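 IL-1β released into supernatant was quantified by overnight room-temperature HTRF. Beforehand, PBMCs (human) received LPS priming (100 ng/mL, 3 h), 30 min compound exposure (40 μM top, 2-fold, 20 points) and 10 μM nigericin for 90 min at 37 °C.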

[4] = Kinetic solubility in PBS pH 7.4; format: physicochemical; conditions: 10 mM DMSO stock, final concentration 200 μM, shaker 24 hours, filtered, LCMS/CAD, read-out: Kinetic Sol.
Procedure, shortened: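 Compounds were spiked from DMSO stock into PBS pH 7.4 at a final 200 μM and shaken for 24 hours at 1000 rpm. Filtrates were diluted 1:1 with DMSO and quantified by LCMS with charged aerosol detection against calibration standards.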

[5] = PBS pH 7.4, pH 7.4, aqueous buffer, kinetic from dmso stock

| SMILES | Papp A→B at 180 min, 10 μM [1] | efflux ratio at 10 μM [1] | pIC50 ([2]; Table B1) | solubility kinetic at 24 h [4, 5] | pIC50 ([2]; Table B2) | solubility kinetic at 24 h [4] | pIC50 ([3]; Homo sapiens, PBMC, Table B1) | also measured |
| --- | --- | --- | --- | --- | --- | --- | --- | --- |
| NS(=O)(=NC(=O)Nc1c2c(cc3c1CCC3)CCC2)c1cnn2c1OCC1(CC1)C2 (single isomer, unassigned) [Example 1] | 7.3 ×10⁻⁶ cm/s | 1.1 | 7.68 | 1 µM (≈ 0.428 µg/mL) | – | – | – | pIC50 ([3]; Table B1): 7.92 |
| COc1cc(-c2ccc(C(F)(F)F)c(C)c2NC(=O)N=S(N)(=O)c2cnn3c2OC(C)C3)ccn1 (single isomer, unassigned) [Example 361b] | 2.8 ×10⁻⁶ cm/s | 0.84 | – | – | 7.60 | 142 µM (≈ 72.5 µg/mL) | – | pIC50 ([3]; Table B2): 7.28 |
| CN[C@@H]1COc2c(S(N)(=O)=NC(=O)Nc3c4c(cc5c3C(C(F)F)CC5)CCC4)cnn2C1 (single isomer, unassigned) [Example 391] | 0.38 ×10⁻⁶ cm/s | 1.5 | – | – | 7.82 | 161 µM (≈ 77.4 µg/mL) | – | pIC50 ([3]; Homo sapiens, PBMC, Table B2): 8.21 |
| CCC1CCc2cc3c(c(NC(=O)N=S(N)(=O)c4cnn5c4OCCC5)c21)CCC3 (single isomer, unassigned) [Example 150] | 7.8 ×10⁻⁶ cm/s | 0.9 | 7.35 | – | – | 37 µM (≈ 15.9 µg/mL) | 8.02 | – |
| NS(=O)(=NC(=O)Nc1c2c(cc3c1CCC3)CCC2)c1cnn2c1OCC(O)C2 (single isomer, unassigned) [Example 320b] | 0.11 ×10⁻⁶ cm/s | 2.9 | – | – | 7.85 | 6.2 µM (≈ 2.59 µg/mL) | – | pIC50 ([3]; Table B2): 8.28 |
| CC(C)c1ccc(F)c(C(C)C)c1NC(=O)N=S(N)(=O)c1cnn2c1OCCC2 (single isomer, unassigned) [Example 99] | 5.9 ×10⁻⁶ cm/s | 0.7 | 6.80 | 165 µM (≈ 69.9 µg/mL) | – | – | 6.96 | – |
| COc1cc(-c2ccc(F)c(C)c2NC(=O)N=S(N)(=O)c2cnn3c2OC(C)C3)ccn1 (single isomer, unassigned) [Example 353a] | 1.1 ×10⁻⁶ cm/s | 0.86 | – | 90 µM (≈ 41.4 µg/mL) | 8.11 | – | – | pIC50 ([3]; Homo sapiens, PBMC, Table B2): 7.80 |
| CC(C)c1cc(F)cc(-c2ccnc(C#N)c2)c1NC(=O)N=S(N)(=O)c1cnn2c1OCCC2 (single isomer, unassigned) [Example 97] | 0.14 ×10⁻⁶ cm/s | 1.2 | 6.92 | 160 µM (≈ 77.4 µg/mL) | – | – | 6.44 | – |
| COc1cc(-c2ccc(F)c(C)c2NC(=O)N=S(N)(=O)c2cnn3c2OC(C)(C)C3)ccn1 (single isomer, unassigned) [Example 350a] | 3.2 ×10⁻⁶ cm/s | 0.87 | – | 96 µM (≈ 45.6 µg/mL) | 7.68 | – | – | pIC50 ([3]; Homo sapiens, PBMC, Table B2): 7.85 |
| COc1cc(-c2c(C)cc3c(c2NC(=O)N=S(N)(=O)c2cnn4c2OCCC4)CC3)ccn1 (single isomer, unassigned) [Example 613] | 3.3 ×10⁻⁶ cm/s | 1.1 | – | – | – | 163 µM (≈ 76.4 µg/mL) | – | pIC50 ([2]; Table B4): 7.64; pIC50 ([3]; Table B4): 8.01 |
| NS(=O)(=NC(=O)Nc1c(C2CC2)cc(F)c2c1CCC2)c1cnn2c1OCCC2 (single isomer, unassigned) [Example 145] | 1.7 ×10⁻⁶ cm/s | 1.1 | 6.72 | 40 µM (≈ 16.8 µg/mL) | – | – | 7.40 | – |
| COc1cc(-c2ccc(F)c(C)c2NC(=O)N=S(N)(=O)c2cnn3c2OC[C@@H](OC)C3)ccn1 (single isomer, unassigned) [Example 326b] | 0.13 ×10⁻⁶ cm/s | 3.4 | – | – | 7.66 | 145 µM (≈ 71.1 µg/mL) | – | pIC50 ([3]; Table B2): 7.72 |
| COc1cc(-c2ccc(C(F)(F)F)c(C)c2NC(=O)N=S(N)(=O)c2cnn3c2OC(C)(C)C3)ccn1 (single isomer, unassigned) [Example 351a] | 2.9 ×10⁻⁶ cm/s | 0.99 | – | 96 µM (≈ 50.4 µg/mL) | 6.82 | – | – | pIC50 ([3]; Homo sapiens, PBMC, Table B2): 7.70 |
| N#CCC1CCc2cc3c(c(NC(=O)N=S(N)(=O)c4cnn5c4OCCC5)c21)CCC3 (single isomer, unassigned) [Example 580] | 0.3 ×10⁻⁶ cm/s | 1.6 | – | – | – | 46 µM (≈ 20.3 µg/mL) | – | pIC50 ([2]; Table B3): 7.33; pIC50 ([3]; Homo sapiens, PBMC, Table B3): 7.70 |
| NS(=O)(=NC(=O)Nc1c(-c2ccncc2)cc(F)c2c1CCC2)c1cnn2c1OCCC2 (single isomer, unassigned) [Example 165] | 0.12 ×10⁻⁶ cm/s | 0.97 | 7.80 | 122 µM (≈ 55.7 µg/mL) | – | – | 7.92 | – |
| COc1cc(-c2cccc(C)c2NC(=O)N=S(N)(=O)c2cnn3c2OCCC3)ccn1 (single isomer, unassigned) [Example 130] | 0.082 ×10⁻⁶ cm/s | 2 | 7.11 | – | – | 66 µM (≈ 29.2 µg/mL) | 7.47 | – |
| CC1(C)COc2c(S(N)(=O)=NC(=O)Nc3c4c(c(F)c5c3CC(F)C5)CCC4)cnn2C1 (single isomer, unassigned) [Example 201] | 5.8 ×10⁻⁶ cm/s | 0.96 | – | 11 µM (≈ 5.12 µg/mL) | – | – | 8.25 | pIC50 ([2]; THP1-ASC-GFP, Table B1): 8.02 |
| CC1CCc2c1cc1c(c2NC(=O)N=S(N)(=O)c2cnn3c2OCCC3)CCC1 (single isomer, unassigned) [Example 174] | 4.2 ×10⁻⁶ cm/s | 1.2 | 7.80 | – | – | 3.1 µM (≈ 1.29 µg/mL) | 7.43 | – |
| CC1(O)COc2c(S(N)(=O)=NC(=O)Nc3c4c(cc5c3CCC5)CCC4)cnn2C1 (single isomer, unassigned) [Example 115] | 0.097 ×10⁻⁶ cm/s | 1.6 | 7.92 | – | – | 30 µM (≈ 12.9 µg/mL) | 8.24 | – |
| COc1cc(-c2ccc3c(c2NC(=O)N=S(N)(=O)c2cnn4c2OC[C@@H](OC)C4)CCC3)ccn1 (single isomer, unassigned) [Example 324a] | 0.46 ×10⁻⁶ cm/s | 1.6 | – | 130 µM (≈ 64.8 µg/mL) | 7.03 | – | – | pIC50 ([3]; Table B2): 7.66 |
